Test results as given in paper PMC3531872 (Chemical research in toxicology, 2011).
Where two headings read alike, the source gives them in different places.

Columns and labels:
[1] = system: liver, pancreas and colorectal DNA; assay: In vivo DNA binding
liver DNA = conditions: male C57BL/6 mice; 24 h post-treatment; 5 mg/kg; cited from earlier work
[2] = target: T1, Recombinant human P450 1B1 (Homo sapiens, UniProt Q16678); assay: N- and C-oxidation by recombinant human P450 1B1; format: in vitro ADME
T1 sequence (Q16678 1-543): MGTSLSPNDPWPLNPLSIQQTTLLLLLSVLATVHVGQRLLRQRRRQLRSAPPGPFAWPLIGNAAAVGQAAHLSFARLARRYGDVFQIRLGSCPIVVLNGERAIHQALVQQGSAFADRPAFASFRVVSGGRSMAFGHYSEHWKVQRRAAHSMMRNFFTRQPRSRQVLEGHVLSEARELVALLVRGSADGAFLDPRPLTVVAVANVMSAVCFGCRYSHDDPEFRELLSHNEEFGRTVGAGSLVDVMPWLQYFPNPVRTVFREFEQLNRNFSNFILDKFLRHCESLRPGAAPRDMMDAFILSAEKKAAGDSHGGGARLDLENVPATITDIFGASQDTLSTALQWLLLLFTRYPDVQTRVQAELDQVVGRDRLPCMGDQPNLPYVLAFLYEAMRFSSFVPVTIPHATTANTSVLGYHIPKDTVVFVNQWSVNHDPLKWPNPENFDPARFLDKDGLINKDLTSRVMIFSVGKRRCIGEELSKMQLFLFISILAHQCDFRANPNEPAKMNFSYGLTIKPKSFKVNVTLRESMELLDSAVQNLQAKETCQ

[3] = Plasma clearance of 14C radioactivity in mice; format: in vivo, female C57BL/6J mice
[4] = target: T2, Recombinant human P450 1A1 (Homo sapiens, UniProt P04798); assay: N- and C-oxidation by recombinant human P450 1A1; format: in vitro ADME
T2 sequence (P04798 1-512): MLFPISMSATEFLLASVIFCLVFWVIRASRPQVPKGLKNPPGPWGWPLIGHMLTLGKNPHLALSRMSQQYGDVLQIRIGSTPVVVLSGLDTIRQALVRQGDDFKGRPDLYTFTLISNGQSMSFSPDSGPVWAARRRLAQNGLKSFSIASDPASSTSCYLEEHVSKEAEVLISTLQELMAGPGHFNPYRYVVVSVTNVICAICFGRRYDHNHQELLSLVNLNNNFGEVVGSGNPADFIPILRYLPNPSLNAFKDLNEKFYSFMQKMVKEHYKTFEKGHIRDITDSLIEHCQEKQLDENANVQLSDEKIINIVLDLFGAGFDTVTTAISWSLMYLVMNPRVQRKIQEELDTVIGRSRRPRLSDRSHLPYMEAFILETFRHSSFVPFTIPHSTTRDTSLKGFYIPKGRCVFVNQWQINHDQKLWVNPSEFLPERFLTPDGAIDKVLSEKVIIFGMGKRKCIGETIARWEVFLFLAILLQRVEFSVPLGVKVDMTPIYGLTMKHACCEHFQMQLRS

rat liver DNA = conditions: 24 h following oral dosing with MeIQx (10 mg/kg); cited from earlier work
[5] = N- and C-oxidation with mouse liver microsomes; format: in vitro ADME, female C57BL/6J mice; conditions: female, C57BL/6J, 200 μM, pH 7.6
[6] = system: S. typhimurium tester strain TA98; conditions: cited from earlier work
[7] = N- and C-oxidation with human liver microsomes; format: in vitro ADME; conditions: 200 μM, pH 7.6
[8] = system: S. typhimurium strain YG1024; conditions: cited from earlier work
mouse liver DNA = conditions: in vivo
[9] = system: liver, pancreas and colorectal DNA; conditions: female, C57BL/6J, mouse, in vivo

**Q.** With `Cc1cnc2ccc3c(nc(N)n3C)c2n1` [MeIQx, 2-Amino-3,8-dimethylimidazo[4,5-f]quinoxaline] as the compound, how does the “Covalent Binding Index, colon” value ([1]; Time 4 h) read?
**A.** 113 ±119 (μ mol/mol dNp)/(mmol carcinogen/kg bw)

**Q.** What about the “Covalent Binding Index, colon” value ([1]; Time 24 h) of the same compound?
**A.** 10.4 ± 11.9 (μ mol/mol dNp)/(mmol carcinogen/kg bw)

**Q.** And the “Covalent Binding Index, colon” value ([1]; Time 48 h)?
**A.** 2.1 ± 0.9 (μ mol/mol dNp)/(mmol carcinogen/kg bw)

**Q.** And the “Covalent Binding Index, liver” value ([1]; Time 4 h)?
**A.** 27.7 ± 8.3 (μ mol/mol dNp)/(mmol carcinogen/kg bw)

**Q.** And the “Covalent Binding Index, liver” value ([1]; Time 24 h)?
**A.** 11.5 ± 7.7 (μ mol/mol dNp)/(mmol carcinogen/kg bw)

**Q.** And the “Covalent Binding Index, liver” value ([1]; Time 48 h)?
**A.** 20.5 ± 8.4 (μ mol/mol dNp)/(mmol carcinogen/kg bw)

**Q.** And the “Covalent Binding Index, pancreas” value ([1]; Time 4 h)?
**A.** 0.8 ± 0.2 (μ mol/mol dNp)/(mmol carcinogen/kg bw)

**Q.** What about the “Covalent Binding Index, pancreas” value ([1]; Time 24 h) of the same compound?
**A.** 0.2 ± 0.1 (μ mol/mol dNp)/(mmol carcinogen/kg bw)

**Q.** And the “Covalent Binding Index, pancreas” value ([1]; Time 48 h)?
**A.** 0.1 ± 0.1 (μ mol/mol dNp)/(mmol carcinogen/kg bw)

**Q.** What about the “time of highest level of 14C isotope in colorectal DNA” value ([1]; colorectal DNA, time points 4, 24, 48 h) of the same compound?
**A.** 4 h

**Q.** And the “14C-isotope associated with liver DNA at 48 h, relative to 4 h” value ([1]; liver DNA, T 48 h vs 4 h)?
**A.** up to 74%

**Q.** What about the “total [14C]-MeIQx-DNA adduct formation, based upon AMS measurements” value ([1]; liver, 24 h post treatment, 2.13 mg/kg by gavage) of the same compound?
**A.** 11.4 ± 7.6 adducts per 10^8 nucleotides

**Q.** What about the “CBI in liver at T4 and 24 h” value ([1]; liver, T4 and 24 h, range over both HAAs) of the same compound?
**A.** 7 - 28

**Q.** What about the “14C-isotope associated with pancreas DNA at 48 h, relative to 4 h” value ([1]; pancreas DNA, T 48 h vs 4 h) of the same compound?
**A.** ≤ 25%

**Q.** And the “[14C]-MeIQx bound to liver DNA” value (liver DNA)?
**A.** about 20 adducts per 10^8 nucleotides

**Q.** What about the “N-oxidation by P450 1B1 (in words)” value ([2]; recombinant human P450 1B1) of the same compound?
**A.** low to not detectable

**Q.** What about the “radioactivity cleared from plasma within 48 h” value ([3]; gavage, 14C-MeIgQx 9.68 mg/kg or 14C-MeIQx 2.13 mg/kg) of the same compound?
**A.** greater than 95%

**Q.** What about the “time of peak plasma levels in radioactivity” value ([3]; gavage, 14C-MeIgQx 9.68 mg/kg or 14C-MeIQx 2.13 mg/kg, time points 4, 24, 48 h) of the same compound?
**A.** 4 h

**Q.** What about the “N-oxidation by P450 1A1 (in words)” value ([4]; recombinant human P450 1A1) of the same compound?
**A.** low to not detectable

**Q.** And the “dA-N^6-MeIQx adduct level relative to dG-C8-MeIQx” value (rat liver DNA)?
**A.** ~ 5%

**Q.** What about the “dG-N^2-MeIQx adduct level relative to dG-C8-MeIQx” value (rat liver DNA) of the same compound?
**A.** 30 - 50%

**Q.** For `Cc1cnc2cc3nc(N)n(C)c3cc2n1` [MeIgQx, 2-Amino-1,7-dimethylimidazo[4,5-g]quinoxaline], which “Estimated C-oxidation rate, HO-MeIg Qx formation” value (from here on “Estimated C-oxidation rate”) [5] is on record?
**A.** 0.5 ± 0.2 nmol/min/mg microsomal protein

**Q.** What about the “Estimated N-oxidation rate, HONH-MeIg Qx formation” value (“Estimated N-oxidation rate” below) [5] of the same compound?
**A.** 0.3 ± 0.1 nmol/min/mg microsomal protein

**Q.** And the “potency in the Ames reversion assay, fold lower than MeIQx” value [6]?
**A.** about 4,000 fold

**Q.** And the “Estimated C-oxidation rate” value [7]?
**A.** 0.1 ± 0.01 nmol/min/mg microsomal protein

**Q.** What about the “Estimated N-oxidation rate” value [7] of the same compound?
**A.** 0.4 ± 0.02 nmol/min/mg microsomal protein

**Q.** And the “rate of N-oxidation” value [7]?
**A.** 0.4 nmol/min/mg protein

**Q.** What about the “Estimated C-oxidation rate” value ([2]; human, 200 μM, pH 7.6) of the same compound?
**A.** 2.5 ± 0.3 nmol/min/100 pmol P450

**Q.** And the “Estimated N-oxidation rate” value ([2]; human, 200 μM, pH 7.6)?
**A.** 3.9 ± 0.6 nmol/min/100 pmol P450

**Q.** And the “radioactivity cleared from plasma within 48 h” value ([3]; female, C57BL/6J, mouse, in vivo, 48 h)?
**A.** greater than 95%

**Q.** What about the “Estimated C-oxidation rate” value ([4]; human, 200 μM, pH 7.6) of the same compound?
**A.** 6.9 ± 2.4 nmol/min/100 pmol P450

**Q.** And the “Estimated N-oxidation rate” value ([4]; human, 200 μM, pH 7.6)?
**A.** 14.1 ± 4.9 nmol/min/100 pmol P450

**Q.** What about the “rate of MeIgQx N-oxidation by P450 1A1 relative to P450 1A2” value ([4]; human, recombinant enzyme, 200 μM, pH 7.6) of the same compound?
**A.** ~ 3 fold

**Q.** And the “genotoxic potency in YG1024 relative to TA98, fold greater” value [8]?
**A.** 16 fold

**Q.** And the “mutagenic potency, fold weaker than PhIP” value [8]?
**A.** about 10 fold

**Q.** What about the “potential dA adduct of MeIgQx ([M+H]+ at m/z 463.2)” value (mouse liver DNA) of the same compound?
**A.** no peaks were detected above background level

**Q.** What about the “putative dG-C8-MeIgQx adduct, MS^2 or MS^3 scan stages” value (mouse liver DNA) of the same compound?
**A.** not detected

**Q.** And the “CBI in liver at T4 and 24 h” value [9]?
**A.** 7 - 28

**Q.** And the “time of highest level of 14C isotope in colorectal DNA” value [9]?
**A.** 24 h

**Q.** And the “Covalent Binding Index, colon” value ([9]; 4 h)?
**A.** 12.0 ± 6.5 (μ mol/mol dNp)/(mmol carcinogen/kg bw)

**Q.** And the “Covalent Binding Index, liver” value ([9]; 4 h)?
**A.** 21.7 ± 8.6 (μ mol/mol dNp)/(mmol carcinogen/kg bw)

**Q.** And the “Covalent Binding Index, pancreas” value ([9]; 4 h)?
**A.** 2.4 ± 2.4 (μ mol/mol dNp)/(mmol carcinogen/kg bw)

**Q.** What about the “14C-isotope associated with liver DNA at 24 h, relative to 4 h” value ([9]; 24 h) of the same compound?
**A.** 33%

**Q.** And the “14C-isotope associated with pancreas DNA at 24 h, relative to 4 h” value ([9]; 24 h)?
**A.** 44%

**Q.** And the “Covalent Binding Index, colon” value ([9]; 24 h)?
**A.** 138 ±114 (μ mol/mol dNp)/(mmol carcinogen/kg bw)

**Q.** And the “Covalent Binding Index, liver” value ([9]; 24 h)?
**A.** 7.0 ± 3.2 (μ mol/mol dNp)/(mmol carcinogen/kg bw)

**Q.** What about the “Covalent Binding Index, pancreas” value ([9]; 24 h) of the same compound?
**A.** 1.1 ± 0.6 (μ mol/mol dNp)/(mmol carcinogen/kg bw)

**Q.** What about the “14C-isotope associated with liver DNA at 48 h, relative to 4 h” value ([9]; 48 h) of the same compound?
**A.** 27%

**Q.** What about the “14C-isotope associated with pancreas DNA at 48 h, relative to 4 h” value ([9]; 48 h) of the same compound?
**A.** 17%

**Q.** And the “Covalent Binding Index, colon” value ([9]; 48 h)?
**A.** 28.7 ± 18.5 (μ mol/mol dNp)/(mmol carcinogen/kg bw)

**Q.** What about the “Covalent Binding Index, liver” value ([9]; 48 h) of the same compound?
**A.** 5.8 ± 0.6 (μ mol/mol dNp)/(mmol carcinogen/kg bw)

**Q.** What about the “Covalent Binding Index, pancreas” value ([9]; 48 h) of the same compound?
**A.** 0.2 ± 0.2 (μ mol/mol dNp)/(mmol carcinogen/kg bw)

**Q.** For `Cn1c(N)nc2ncc(-c3ccccc3)cc21` [PhIP, 2-amino-1-methyl-6-phenylimidazo[4,5-b]pyridine, reference compound], which mutagenic potency ([8]; S. typhimurium YG1024) is on record?
**A.** 3,015 rev/μg
